Series [1] can be described thus: Drug level in mouse brain at 3 mg/kg, po after 0.5 hrs. It is filed as ADME, organism-based. Also on record: dose 3 mg/kg, route oral. Particulars: read-out: Drug uptake.
Series [2] can be described thus: Volume of distribution at steady state in rat at 1 mg/kg, iv. To be noted: in vivo, read-out: Vdss. Set-up: dose 1 mg/kg, route intravenous. It is filed as ADME, organism-based.
Series [3] is described as follows: Drug level in brain of complete Freund's adjuvant-induced rat inflammatory pain model at 3 mg/kg, po after 1 hr. In kind it is ADME, organism-based. Set-up: dose 3 mg/kg, route oral. Particulars: read-out: Drug uptake.
The nature of series [4]: Half life in rat at 1 mg/kg, iv. It is filed as ADME, organism-based. Also on record: dose 1 mg/kg, route intravenous. Particulars: in vivo.
Series [5] can be described thus: Solubility in simulated gastric fluid after 2 hrs. It is filed as physicochemical.
Series [6] in a line: Solubility in fasted state simulated intestinal fluid after 2 hrs. In kind it is physicochemical.
The test system of series [7] is Liver microsomes. Description: Metabolic stability assessed as intrinsic clearance per gram of human liver microsomes. In kind it is ADME, Microsome. On the technique in general: Microsomes from liver hold many membrane-bound enzymes, among them those of drug oxidation.
Series [8] can be described thus: Drug level in brain of sub-chronic rat joint pain efficacy model treatment group at 20 mg/kg bid measured on day 5 after 1 hr post dose. Set-up: dose 20 mg/kg. To be noted: read-out: Drug uptake. It is filed as ADME, organism-based.
The target in series [9] is T1, Prostaglandin E2 receptor EP1 subtype (Homo sapiens, UniProt P34995).
T1 sequence (P34995 whole entry): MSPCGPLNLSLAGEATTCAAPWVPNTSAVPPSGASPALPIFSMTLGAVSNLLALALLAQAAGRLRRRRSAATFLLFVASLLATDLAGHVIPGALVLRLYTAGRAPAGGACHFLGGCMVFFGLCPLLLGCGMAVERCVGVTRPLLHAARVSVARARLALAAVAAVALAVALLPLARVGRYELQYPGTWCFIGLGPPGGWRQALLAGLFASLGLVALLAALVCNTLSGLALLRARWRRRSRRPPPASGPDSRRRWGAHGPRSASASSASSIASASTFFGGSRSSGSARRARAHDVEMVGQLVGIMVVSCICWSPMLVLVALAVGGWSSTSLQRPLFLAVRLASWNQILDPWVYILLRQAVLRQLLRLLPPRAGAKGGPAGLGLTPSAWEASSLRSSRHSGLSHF
Description: Antagonist activity at EP1 receptor by FLIPR calcium mobilization assay.

The subject of series [10] is Liver microsomes. As to the kind of experiment: Metabolic stability assessed as intrinsic clearance per gram of rat liver microsomes. It is filed as ADME, Microsome.
A short description of series [11]: Half life in cynomolgus monkey at 1 mg/kg, iv. In kind it is ADME, organism-based, Macaca fascicularis. Set-up: dose 1 mg/kg, route intravenous. To be noted: in vivo.
A short description of series [12]: Drug level in rat brain at 0.28 mg/kg/hr, iv for 18 hrs. Set-up: route intravenous. In kind it is ADME, organism-based. Particulars: read-out: Drug uptake.
A short description of series [13]: Volume of distribution at steady state in cynomolgus monkey at 1 mg/kg, iv. It is filed as ADME, organism-based, Macaca fascicularis. Set-up: dose 1 mg/kg, route intravenous. To be noted: in vivo, read-out: Vdss.
The nature of series [14]: Ratio of drug level in brain to blood in complete Freund's adjuvant-induced rat inflammatory pain model at 1 mg/kg, po after 1 hr. It is filed as ADME, organism-based. Also on record: dose 1 mg/kg, route oral.
A short description of series [15]: Solubility in fed state simulated intestinal fluid after 24 hrs. In kind it is physicochemical.
Series [16] in a line: Steady state blood clearance in rat at 0.28 mg/kg/hr, iv for 18 hrs. In kind it is ADME, organism-based. Also on record: route intravenous.
A short description of series [17]: Aqueous solubility in water after 2 hrs. It is filed as physicochemical.
Series [18] can be described thus: Drug level in mouse blood at 3 mg/kg, po after 0.5 hrs. It is filed as ADME, organism-based. Also on record: dose 3 mg/kg, route oral. Particulars: read-out: Drug uptake.
Series [19] concerns the target T2, Peroxisome proliferator-activated receptor gamma (Homo sapiens, UniProt P37231).
T2 sequence (P37231 whole entry): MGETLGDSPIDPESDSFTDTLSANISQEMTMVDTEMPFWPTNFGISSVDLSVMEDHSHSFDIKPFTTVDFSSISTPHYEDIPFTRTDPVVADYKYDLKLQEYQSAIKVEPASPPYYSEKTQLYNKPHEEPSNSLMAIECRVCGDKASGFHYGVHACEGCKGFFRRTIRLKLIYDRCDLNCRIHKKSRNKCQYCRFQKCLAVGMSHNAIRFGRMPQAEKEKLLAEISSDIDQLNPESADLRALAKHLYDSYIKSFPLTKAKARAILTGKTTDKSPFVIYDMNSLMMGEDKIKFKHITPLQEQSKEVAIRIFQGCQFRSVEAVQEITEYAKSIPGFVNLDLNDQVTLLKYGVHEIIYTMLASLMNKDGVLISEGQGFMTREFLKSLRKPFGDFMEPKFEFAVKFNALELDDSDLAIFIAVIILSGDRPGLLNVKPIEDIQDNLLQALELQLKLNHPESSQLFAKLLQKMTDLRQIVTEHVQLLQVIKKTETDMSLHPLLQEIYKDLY
As to the kind of experiment: Binding affinity to PPARgamma.

A short description of series [20]: Blood clearance in rat at 1 mg/kg, iv. It is filed as ADME, organism-based. Also on record: dose 1 mg/kg, route intravenous.
A short description of series [21]: Drug level in blood of sub-chronic rat joint pain efficacy model treatment group at 5 mg/kg bid measured on day 5 after 1 hr post dose. In kind it is ADME, organism-based. Set-up: dose 5 mg/kg. To be noted: read-out: Drug uptake.
The nature of series [22]: Drug level in blood of sub-chronic rat joint pain efficacy model satellite animal group at 20 mg/kg bid measured on day 1 after 1 hr post dose. It is filed as ADME, organism-based. To be noted: read-out: Drug uptake. Also on record: dose 20 mg/kg.
For series [23], the target named is T3, Peroxisome proliferator-activated receptor delta (Homo sapiens, UniProt Q03181).
T3 sequence (Q03181 whole entry): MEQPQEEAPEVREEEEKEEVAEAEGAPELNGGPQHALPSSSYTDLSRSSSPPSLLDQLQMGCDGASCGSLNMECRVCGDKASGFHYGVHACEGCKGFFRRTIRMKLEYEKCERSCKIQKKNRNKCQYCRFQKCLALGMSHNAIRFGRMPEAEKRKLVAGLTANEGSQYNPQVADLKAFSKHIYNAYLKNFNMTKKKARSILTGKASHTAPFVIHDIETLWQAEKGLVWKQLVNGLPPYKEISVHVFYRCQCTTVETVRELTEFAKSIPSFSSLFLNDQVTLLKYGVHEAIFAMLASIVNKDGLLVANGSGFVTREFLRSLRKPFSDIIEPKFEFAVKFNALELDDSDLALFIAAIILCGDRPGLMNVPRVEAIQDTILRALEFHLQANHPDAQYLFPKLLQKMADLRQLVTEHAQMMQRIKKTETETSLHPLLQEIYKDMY
As to the kind of experiment: Activity at PPARdelta.

The half-life is how long it takes for the measured level to halve. As usually defined, the solubility is the dissolved amount per volume that the medium holds. Usually Ki stands for the equilibrium dissociation constant of an inhibitor or competing ligand from its target. For orientation: Kp means the ratio of the level in a tissue or fluid to that in plasma or blood. By clearance is commonly meant a measure of how efficiently the substance is removed, as volume per time. In general, EC50 refers to the concentration needed to bring the measured effect to its halfway point.

Take `CC(C)COc1ccc(Cl)cc1-c1ccccc1-c1cccc(C(=O)[O-])n1.[Na+]`: the figures for the concentration at 0.5 h in series [1] and in [18] were 277 nM and 1120 nM, respectively. In addition, the Vd in [2] amounted to 1.9 L/kg; in series [13] it was 0.5 L/kg. The concentration at 1 h in series [3] was found to be 1480 nM; in [8] it was 3210 nM; in series [21], 1630 nM; in series [22], 25900 nM. For the same compound, the half-life is 3.5 h in series [4] and 0.8 h in series [11]. Besides, the solubility at 2 h in series [5] is 33 µg/mL; in series [6], 1030 µg/mL; in series [17], 499 µg/mL. The CL in the series with Liver microsomes [7] was found to be 1.9 mL/min/g; in the series with Liver microsomes [10], 0.7 mL/min/g. For the same compound, the Ki in series [9] is 0.00251 µM; in series [19] it was 12.6 µM. Also, in series [12], the concentration at 18 h stood at 550 nM. The Kp at 1 h in series [14] was found to be 0.27. Besides, the solubility at 24 h in series [15] was 1140 µg/mL. For the same compound, the clearance in series [16] is 8 mL/min/kg; in series [20], 11 mL/min/kg. The same compound had an EC50 in series [23] greater than 10 µM.

Values taken from ChEMBL document CHEMBL1154508, “Discovery of GSK345931A: An EP(1) receptor antagonist with efficacy in preclinical models of inflammatory pain” (Bioorg Med Chem Lett, 2009).
